Drawing on patent US9085571B2, “Nonpeptide HIV-1 protease inhibitors” (Purdue Research Foundation, priority 2008, dated 2015), this text covers Ki and IC50 for 29 compounds.

One test has as its target HIV-1 protease (Human immunodeficiency virus type 1 group M subtype B (isolate HXB2) (HIV-1), UniProt P04585). Nature of the test: Inhibition of HIV proteases (inhibition constants, method of Toth and Marshall). The test is classed as biochemical. From the text:
Techniques for measurement of the ability of the compounds herein described to decrease the proteolytic activity of proteases encoded by HIV are well known to those skilled in the relevant art and any one or combination of such techniques can be used to measure the inhibition of protease activity of the compound herein described. One illustrative method is described by Toth and Marshall (Toth & Marshall, Int. J. Pep. Protein Res. (1990), 36, 544-550). The disclosure of the foregoing is incorporated herein in its entirety by reference. In addition, the entirety of the disclosures of each of the publications cited herein are also incorporated herein by reference.

In another test the test system is HIV-1. Nature of the test: Inhibition of HIV-1 (IC50). The test is classed as cell-based, human immunodeficiency virus type 1. The settings on record: Human immunodeficiency virus 1.

With `COc1ccc(S(=O)(=O)N(CC(C)C)C[C@@H](O)[C@H](Cc2ccccc2)NC(=O)c2cccc(C(=O)N(C)Cc3oc(C)nc3C)c2)cc1`, the inhibition constant Ki at HIV-1 protease is 0.6 nM.

For the compound `COc1ccc(S(=O)(=O)N(CC(C)C)C[C@@H](O)[C@H](Cc2ccccc2)NC(=O)c2cccc(C(=O)N(C)Cc3nc(C)co3)c2)cc1`, the Ki on HIV-1 protease was 0.6 nM. This compound came in with an IC50 in the test on HIV-1 of 20 nM.

Consider `COc1ccc(S(=O)(=O)N(CC(C)C)C[C@@H](O)[C@H](Cc2ccccc2)NC(=O)c2cc(N)cc(C(=O)N(C)C3CCCCC3)c2)cc1`, for which the Ki at HIV-1 protease came to 300 nM.

As to `CCCNC(=O)c1cc(N)cc(C(=O)N[C@@H](Cc2ccccc2)[C@H](O)CN(CC(C)C)S(=O)(=O)c2ccc(OC)cc2)c1`, the Ki on HIV-1 protease was determined as 400 nM.

Consider `Cc1nc(CNC(=O)c2cccc(C(=O)N[C@@H](Cc3ccccc3)[C@H](O)CN3C[C@H]4CCCC[C@H]4C[C@H]3C(=O)NC(C)(C)C)c2)c(C)o1`, for which the Ki at HIV-1 protease amounted to 20 nM.

For `COc1ccc(S(=O)(=O)N(CC(C)C)C[C@@H](O)[C@H](Cc2ccccc2)NC(=O)c2cc(C(=O)N(C)C3CCCCC3)cc(N(C)C(=O)OC(C)(C)C)c2)cc1`, the Ki on HIV-1 protease worked out at 1000 nM.

On to `CCCN(C)C(=O)c1cc(C(=O)N[C@@H](Cc2ccccc2)[C@H](O)CN(CC(C)C)S(=O)(=O)c2ccc(OC)cc2)cc(N(C)C(=O)OC(C)(C)C)c1`, for which, on HIV-1 protease, the Ki came to 1000 nM.

For the compound `CCCNC(=O)c1cc(NC)cc(C(=O)N[C@@H](Cc2ccccc2)[C@H](O)CN(CC(C)C)S(=O)(=O)c2ccc(OC)cc2)c1`, on HIV-1 protease, the Ki amounted to 300 nM.

`CNc1cc(C(=O)N[C@@H](Cc2ccccc2)[C@H](O)CN(CC(C)C)S(=O)(=O)c2ccc(OC)cc2)cc(C(=O)N(C)C2CCCCC2)c1`: at HIV-1 protease, the Ki amounted to 200 nM.

`CCCN(C)C(=O)c1cc(NC)cc(C(=O)N[C@@H](Cc2ccccc2)[C@H](O)CN(CC(C)C)S(=O)(=O)c2ccc(OC)cc2)c1`: the Ki on HIV-1 protease worked out at 200 nM.

In the case of `COc1ccc(S(=O)(=O)N(CC(C)C)C[C@@H](O)[C@H](Cc2ccccc2)NC(=O)c2cc(OC)cc(C(=O)N(C)C3CCCCC3)c2)cc1`, at HIV-1 protease, the Ki came out at 40 nM.

In the case of `CCCNC(=O)c1cc(OC)cc(C(=O)N[C@@H](Cc2ccccc2)[C@H](O)CN(CC(C)C)S(=O)(=O)c2ccc(OC)cc2)c1`, the Ki on HIV-1 protease is 50 nM.

In the case of `Cc1nc(CN(C)C(=O)c2cccc(C(=O)N[C@@H](Cc3ccccc3)[C@H](O)CN3C[C@H]4CCCC[C@H]4C[C@H]3C(=O)NC(C)(C)C)c2)c(C)o1`, the Ki at HIV-1 protease was found to be 5 nM.

For `CCCN(CCC)C(=O)c1cccc(C(=O)N[C@@H](Cc2ccccc2)[C@H](O)CN2C[C@H]3CCCC[C@H]3C[C@H]2C(=O)NC(C)(C)C)c1`, on HIV-1 protease, the Ki is 100 nM.

Turning to `CCCN(CCC)C(=O)c1cccc(C(=O)N[C@@H](Cc2ccccc2)[C@H](O)CN(CC(C)C)S(=O)(=O)c2ccc(OC)cc2)c1`, the Ki on HIV-1 protease is 20 nM.

`CCCN(C)C(=O)c1cc(OC)cc(C(=O)N[C@@H](Cc2ccccc2)[C@H](O)CN(CC(C)C)S(=O)(=O)c2ccc(OC)cc2)c1`: the Ki at HIV-1 protease is 20 nM.

For the compound `COCc1coc(CN(C)C(=O)c2cccc(C(=O)N[C@@H](Cc3ccccc3)[C@H](O)CN(CC(C)C)S(=O)(=O)c3ccc(OC)cc3)c2)n1`, at HIV-1 protease, the Ki was 0.3 nM.

As for `Cc1coc(CN(C)C(=O)c2cccc(C(=O)N[C@@H](Cc3ccccc3)[C@H](O)CN(CC(C)C)S(=O)(=O)c3ccc(CO)cc3)c2)n1`, the Ki at HIV-1 protease was determined as 0.6 nM.

Consider `COc1ccc(S(=O)(=O)N(CC(C)C)C[C@@H](O)[C@H](Cc2ccccc2)NC(=O)c2cc(C)cc(C(=O)N(C)Cc3nc(C)oc3C)c2)cc1`, for which the Ki at HIV-1 protease is 0.2 nM. The same compound gave an IC50 in the test on HIV-1 of 30 nM.

`COc1ccc(S(=O)(=O)N(CC(C)C)C[C@@H](O)[C@H](Cc2ccccc2)NC(=O)c2cncc(C(=O)N(C)Cc3nc(C)oc3C)c2)cc1`: the Ki on HIV-1 protease came out at 6 nM.

As to `COc1ccc(S(=O)(=O)N(CC(C)C)C[C@@H](O)[C@H](Cc2ccccc2)NC(=O)c2cc(OC)cc(C(=O)N(C)Cc3nc(C)oc3C)c2)cc1`, the inhibitory constant (Ki) on HIV-1 protease came to 1 nM.

With `CNc1cc(C(=O)N[C@@H](Cc2ccccc2)[C@H](O)CN(CC(C)C)S(=O)(=O)c2ccc(OC)cc2)cc(C(=O)N(C)Cc2nc(C)oc2C)c1`, the Ki on HIV-1 protease was 5 nM.

With `COc1ccc(S(=O)(=O)N(CC(C)C)C[C@@H](O)[C@H](Cc2ccccc2)NC(=O)c2ccc(C(=O)N(C)Cc3nc(C)oc3C)cc2)cc1`, the Ki on HIV-1 protease turned out to be 70 nM.

For `COc1ccc(S(=O)(=O)N(CC(C)C)C[C@@H](O)[C@H](Cc2ccccc2)NC(=O)c2cc(N)cc(C(=O)N(C)Cc3nc(C)oc3C)c2)cc1`, on HIV-1 protease, the Ki is 100 nM.

For the compound `COc1ccc(S(=O)(=O)N(CC(C)C)C[C@@H](O)[C@H](Cc2ccccc2)NC(=O)c2cccc(C(=O)N(C)Cc3csc(C)n3)c2)cc1`, at HIV-1 protease, the Ki was determined as 0.1 nM.

With `COc1ccc(S(=O)(=O)N(CC(C)C)C[C@@H](O)[C@H](Cc2ccccc2)NC(=O)c2ccccc2C(=O)N(C)Cc2nc(C)oc2C)cc1`, the Ki on HIV-1 protease was determined as 600 nM.

In the case of `Cc1nc(CN(C)C(=O)c2cccc(C(=O)N[C@@H](Cc3ccccc3)[C@H](O)CN(CC(C)C)S(=O)(=O)c3ccc(N)cc3)c2)c(C)o1`, at HIV-1 protease, the inhibition constant (Ki) was 2 nM.

As for `COc1ccc(S(=O)(=O)N(CC(C)C)C[C@@H](O)[C@H](Cc2ccccc2)NC(=O)c2cccc(C(=O)N3CCC[C@H]3c3nc(C)cs3)c2)cc1`, the Ki on HIV-1 protease is 30 nM.

In the case of `COc1ccc(S(=O)(=O)N(CC(C)C)C[C@@H](O)[C@H](Cc2ccccc2)NC(=O)c2cccc(C(=O)N3CCC[C@@H]3c3nc(C)cs3)c2)cc1`, the Ki on HIV-1 protease was in the range of 0.03 to 8 nM. In the test with HIV-1, this compound yielded an IC50 of 32 nM.
